Reference: patent publication US11986659B2, “Modulation of neuronal NKCC1 as a therapeutic strategy for spasticity and related disorders” (Research Foundation of the City University of New York, priority 2018, dated 2024)

What was measured:
[1] = tested on: animals with spasticity following SCI; experiment: Stretch-apparatus test of spasticity (muscle resistance, EMG) in mice with SCI after bumetanide injection; type: in vivo, CD-1 mice
Excerpt: (§1) Adult female CD-1 mice (n=120 weight, 27-37 g) were used for all of the animal studies performed. A total of 51 animals were used for the long-term stimulation studies that included four groups. Animals with SCI were randomly divided into three groups: a-tsDCS-treated group (n=16), a c-tsDCS-treated group (n=15), and a sham-treated group (n=10), and a non-injured control group (n=10). Subgroups of these animals were also used to study long-term changes in expression for KCC2, pKCC2, NKCC1, and pNKCC1. Injured animals with spasticity were used to test the immediate effect of tsDCS on rate-dependent depression (RDD) (n=6), while the relatively short-term effects of tsDCS on the expression of NKCC1 and pNKCC1 were studied in non-injured animals (n=10). Pharmacological studies involving bumetanide (NKCC1 blocker) were conducted with SCI animals (n=9) and non-injured control animals (n=3). Meanwhile, qPCR studies were conducted with non-injured control animals (n=41). All of the study protocols were approved by the College of Staten Island IACUC committee.
Following administration of a ketamine/xylazine cocktail (90/10 mg/kg, i.p.) to achieve deep anesthesia, a laminectomy at thoracic T10 vertebra was performed to expose the T13 spinal segment. An infinite horizon (IH) spinal cord impactor (IH-0400, Precision Systems & Instrumentation, VA, USA) was used to induce a contusive SCI force. The impact force level was 60 kdyn and was selected based on data collected from exploratory experiments that were conducted with this impactor. In these preliminary studies, contusion injuries were induced with increasing impact forces in order to optimize the SCI contusion force needed to produce spastic mice. Mice impacted at 60 kdyn produced ideal spastic behavior at approximately 2-3 weeks post-injury. Impact was applied by using a standard mouse tip (diameter=1.3 mm). Following the contusion procedure, overlying muscles and skin were sutured and the surgical site was covered with a layer of gentamicin sulfate ointment to prevent infection. Each mouse subsequently received a number and then was placed on a warming pad (30° C.) for recovery.
A computer-controlled stretch device was assembled in our laboratory from a stepper motor (DMX-UMD-23m, ARCUS Technology Inc., CA. USA), a foot presser mounted on a force-displacement transducer (FT03, GRASS Technologies/NATUS, CA, USA) connected to a bridge amplifier (ADInstruments, Colorado Springs, CO, USA), and a mouse holder (FIG. 1). The transducer was permanently fixed to a linear rail-guided carriage (SGB15NUU, ZNT Automatic Technology Co, Zhejiang, China). The rotational movement of the stepper motor is converted into linear displacement at the carriage by using a set of jointed flat-aluminum rods that are connected with swivel hub bearings. Two computer software programs were utilized to control the stepper motor and to perform the online (during) stretch and electromyogram (EMG) recordings. First, a stepper motor control software (DMX-UMD GUI, ARCUS Technology Inc.) was re-written to permit the execution of three consecutively timed stretches, with each stretch separated by two 10-s recovery intervals. The stepper motor was also programmed to provide three different stretch speeds: 18/s, 180/s, and 1800/s, which correspond to 3 RPM, 30 RPM, and 300 RPM, respectively. The second software package used was LabChart-7 bundled with PowerLab data acquisition system software (ADInstruments) which was used to gather and analyze data.
A mouse restraining system was fabricated in our laboratory (FIG. 1) from three components. 1) A clear Plexiglas acrylic tube served as the mouse holding chamber. 2) An internally adjustable support system made of a clear acrylic concave stabilization plate. The location of the plate was able to be adjusted linearly along the length of the chamber via a handle that protruded through a cutout that ran the entire length of the tube. […]

[2] = tested on: non-injured control animals; experiment: Stretch response in non-injured control animals after bumetanide injection; type: in vivo, CD-1 mice
Excerpt: as §1, with “committee. […]” for “committee.”

[3] = 60 mg/kg, 5, 20, 30 and 45 min after injection vs baseline, p<0.001

CCCCNc1cc(C(=O)O)cc(S(N)(=O)=O)c1Oc1ccccc1 [bumetanide]
reductions in spasticity ([1]; 30 mg/kg, one hour after administration, n=5, data not shown): moderate reductions in spasticity | corresponding EMG [1, 3]: significant reduction | reduction in peak resistance (reflexive muscle resistance) [1, 3]: 34% | background activity and resting muscle tone on slow stretches ([1]; 60 mg/kg, thirty min after injection): reduce background activity and resting muscle tone | spasticity following bumetanide treatment ([1]; SCI mice, dose not given): spasticity was reduced | muscle resistance and concurrent EMG at low speed and high speed (FIG. 9) ([1]; following bumetanide injection, n=9 mice, vs baseline 2): decreases in muscle resistance and concurrent EMG | animals exhibiting a reduced reflexive stretch response ([2]; 60 mg/kg, non-injured control animals): 21% | reduction in reflexive muscle resistance in controls ([2]; after bumetanide injection, controls): 21 °/0
